Read-outs that look alike come from different tables or passages of the source.
Assays:
[1] = test system: P. falciparum F32-ART5 and F32-TEM; assay: Recrudescence assay F32-ART5 versus F32-TEM; format: cell-based, Plasmodium falciparum; conditions: 48 h drug exposure; M1 2.5 and 10 μM; artemisinin 18 μM
Method: (§1) The Plasmodium falciparum artemisinin-resistant strain F32-ART5 and its twin artemisinin-sensitive line F32-TEM ([30], [31]) were cultivated at 37°C with 5% CO2 in human red blood cells (EFS [French Blood Bank]) diluted to 2% hematocrit in RPMI 1640 medium supplemented with 5% human serum (EFS) as previously reported ([47]).
A recrudescence assay was performed to evaluate the ability of the F32-ART5 parasite line to survive drug exposure in comparison to that of the F32-TEM parasite line ([30], [31]) in order to evaluate the risk of cross-resistance between artemisinin and M1. D-Sorbitol-synchronized ring-stage parasites at 3% parasitemia (2% hematocrit) were exposed to the drug for 48 h. After drug exposure, parasite cultures were washed with RPMI 1640 medium and replaced in normal drug-free culture conditions. The time to parasite recrudescence was determined as the time required to reach initial parasitemia. […] Each experiment, performed in parallel for F32-ART5 and F32-TEM cultivated under the same conditions to generate paired results, was carried out at least three times independently and data statistically analyzed.
A statistical analysis (log-rank test) was carried out on data from the recrudescence assay and the QSA using a Kaplan-Meier survival analysis considering censored data. The final event was defined as the time necessary for cultures to reach initial parasitemia. […]

[2] = test system: P. falciparum strain K1 in RBC; assay: In vitro chemosensitivity assay, blood stage P. falciparum K1 (SYBR green I); format: cell-based; conditions: Plasmodium falciparum, K1; erythrocytic stage, 72 h; read-out: EC50 (μM) for P. falciparum strain K1 in RBC
Method: Maintenance in continuous culture was done as described previously by Trager and Jensen ([46]). Cultures were maintained in fresh A+ human erythrocytes (EFS [French Blood Bank]) at 2.5% hematocrit in complete medium (RPMI 1640 with 25 mM HEPES, 25 mM NaHCO3, 10% A+ human serum) at 37°C under a reduced-O2 atmosphere (gas mixture of 10% O2, 5% CO2, and 85% N2). Parasitemia was maintained daily between 1% and 3%. The P. falciparum drug susceptibility test was carried out by comparing quantities of DNA in treated and control cultures of parasites in human erythrocytes according to a SYBR green I fluorescence-based method ([50]) using a 96-well fluorescence plate reader. Compounds, previously dissolved in DMSO (final concentration, less than 0.5% vol/vol), were incubated in a total assay volume of 200 μl of synchronized culture suspension (2% hematocrit and 0.4% parasitemia) for 72 h in a humidified atmosphere (85% N2, 10% O2, and 5% CO2) at 37°C in 96-well flat-bottom plates. Duplicate assays were performed for each sample. After incubation, plates were frozen at −20°C for 24 h. Then, the frozen plates were thawed for 1 h at 37°C. Fifteen microliters of each sample was transferred to 96-well flat-bottom black plates (Greiner Bio-one) already containing 15 μl of the SYBR green I lysis buffer (2× SYBR green I, 20 mM Tris base, pH 7.5, 20 mM EDTA, 0.008% [wt/vol] saponin, 0.08% [wt/vol] Triton X-100). […] Plates were incubated for 15 min at 37°C and then read on a Tecan Infinite F-200 spectrophotometer with excitation and emission wavelengths at 485 and 535 nm, respectively. […] EC50K1 values represent the mean values calculated from three independent experiments.

[3] = test system: P. falciparum F32-TEM (artemisinin-sensitive); assay: Standard in vitro chemosensitivity assay (hypoxanthine uptake), F32-TEM; format: cell-based; conditions: Plasmodium falciparum, F32, 48 h, read-out: Mean EC50 ± SD
Method: as §1
In vitro susceptibility of P. falciparum parasites was determined by using the standard hypoxanthine uptake inhibition assay as described previously ([51]) with some modifications ([52]). After D-sorbitol treatment, parasites synchronized at the ring stage were exposed for 48 h, with [^3H]hypoxanthine (Perkin Elmer, France), to a range of concentrations of the different tested compounds. […] Each result represents 3 independent experiments.

[4] = design: method as in PMID 25791675; conditions: cited from earlier work
[5] = test system: P. falciparum sporozoites invading primary human hepatocytes; assay: Hepatocyte invasion by preincubated P. falciparum sporozoites; conditions: Plasmodium falciparum, Hepatocyte, in Homo sapiens, sporozoites preincubated 1 h; for inhibition at 1 µM: read-out: inhibition of invasion of sporozoites into hepatocytes, 1 μM; for inhibition at 10 µM: read-out: inhibition of invasion of sporozoites into hepatocytes, 10 μM; for inhibition at 100 µM: read-out: inhibition of invasion of sporozoites into hepatocytes, 100 μM
Method: On the day of infection, 3 · 10^4 sporozoites of P. falciparum, P. yoelii, and P. cynomolgi were added to their respective host cell cultures (human, murine, and simian). The infected culture plates were centrifuged for 10 min at 900 × g, allowing fast parasite sedimentation, and further incubated with serial dilutions of M1. Culture medium containing the appropriate drug concentration was refreshed daily, and cells were fixed at 48 h postinfection (p.i.) for infections with P. yoelii, 6 days p.i. for P. falciparum, or 8 days p.i. for P. cynomolgi. For the in vitro sporozoite invasion experiments, P. falciparum sporozoites were preincubated with 1, 10, and 100 μM M1 for 1 h at room temperature before hepatocyte infections. Three hours later, after sporozoite penetration into hepatocytes, cultures were washed and then further incubated with or without the presence of the drug during 6 days. DMSO was used as a negative control.
The number, size, and shape of the parasites were determined using a CellInsight high-content screening platform equipped with Studio HCS software (ThermoFisher Scientific). […] Host cell and parasite nuclei were labeled with DAPI (4′,6-diamidino-2-phenylindole). […] The custom script used for counting and measuring parasites first required identification of the objects based on a fluorescence intensity threshold. The object identity was then further validated based on size and morphological (shape) criteria. The presence of DAPI-associated fluorescence in the selected objects allowed their final selection and the rejection of false positives. […] The parasitic size reduction was calculated on the average object area using the total surface area of each selected object (μm^2).

[6] = cultures additionally treated until day 6
[7] = cultures then without drug for 6 days

## Cc1ccc(-c2cc3nc(NC(C)(C)C)[nH]c(=O)c3s2)cc1 [Metabolite M1, 2-(tert-Butylamino)-6-(p-tolyl)thieno[3,2-d]pyrimidin-4(3H)-one]
[1]
  recrudescence of F32-ART5 versus F32-TEM (cross-resistance with artemisinin): no cross-resistance with artemisinin
[2]
  EC50: 0.045 µM
[3]
  EC50: 283 ± 125 nM
[4]
  Ames test: negative
[5]; [6]
  inhibition at 1 µM: 80%
  inhibition at 10 µM: 100%
  inhibition at 100 µM: 100%
[5]; [7]
  inhibition at 1 µM: 30%
  inhibition at 10 µM: 60%
  inhibition at 100 µM: ~100%

Reference: paper PMC8557901 (Microbiology Spectrum, 2021)
